From patent publication US20210161997A1, “TREATING DISEASES VIA TARGETED MODULATION OF GENE SIGNALING NETWORKS” (Camp4 Therapeutics Corporation, priority 2018, published 2021) come the findings set out here.

SMILES strings stand for the structures.

Type in all cases: cell-based
One experiment concerns JAG1. The experiment in a line: RNA-seq of JAG1 expression in compound-treated primary human hepatocytes. The settings on record: for JAG1 Fold Change (Log2): primary human hepatocytes; for Significant modulation of JAG1 (in words): summary of Table 6. In short, it runs like this:
(§1)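 Cryopreserved primary human hepatocytes from three donors, switched to serum-free medium 2 h before compound addition, were harvested about 18 h after treatment. Poly(A) mRNA was sequenced and aligned to GENCODE release 24, with DESeq2 negative binomial differential expression. Fold change is the treated level over the unperturbed level.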

A further experiment deals with SLC37A4. The experiment in a line: RNA-seq of SLC37A4 expression in compound-treated primary human hepatocytes. The procedure: Human hepatocytes were obtained from two donors from Massachusetts General Hospital, namely MGH54 and MGH63, and one donor from Lonza, namely HUM4111B. Cryopreserved hepatocytes were cultured in plating media for 16 hours, transferred to maintenance media for 4 hours. Cultured on serum-free media for 2 hours, then a compound was added. The hepatocytes were maintained on the serum-free media for 16 hours prior to gene expression analysis. Primary human hepatocytes were stored in the vapor phase of a liquid nitrogen freezer (about −130° C.).
Human hepatocytes cultured as described above were plated in 24-well format, adding 375,000 cells per well in a volume of 500 ul plating medium. Four hours before treatment, cells were washed with PBS and the medium was changed to either: fresh maintenance medium (complete) or modified maintenance medium.
Compound stocks were prepared at 1000× final concentration and added in a 2-step dilution to the medium to reduce risk of a compound precipitating out of solution when added to the cells, and to ensure reasonable pipetting volumes. One at a time, each compound was first diluted 10-fold in warm (about 37° C.) modified maintenance medium (initial dilution=ID), mixed by vortexing, and the ID was diluted 100-fold into the cell culture (e.g. 5.1 ul into 1 well of a 24-well plate containing 0.5 mL medium). The plate was mixed by carefully swirling and after all wells were treated and returned to the incubator overnight. If desired, separate plates/wells were treated with vehicle-only controls and/or positive controls. If using multi-well plates, controls were included on each plate. After about 18 hours, cells were harvested for further analysis, e.g., ChIP-seq, RNA-seq, ATAC-seq, etc.
This protocol is a modified version of the following protocols: MagMAX mirVana Total RNA Isolation Kit User Guide (Applied Biosystems #MAN0011131 Rev B.0), NEBNext Poly(A) mRNA Magnetic Isolation Module (E7490), and NEBNext Ultra Directional RNA Library Prep Kit for Illumina (E7420) (New England Biosystems #E74901).
The MagMAX mirVana kit instructions (the section titled “Isolate RNA from cells” on pages 14-17) were used for isolation of total RNA from cells in culture. Two hundred μl of Lysis Binding Mix was used per well of the multiwell plate containing adherent cells (usually a 24-well plate).
For mRNA isolation and library prep, the NEBNext Poly(A) mRNA Magnetic Isolation Module and Directional Prep kit was used. RNA isolated from cells above was quantified, and prepared in […] of each sample in 50 μl of nuclease-free water. This protocol may be run in microfuge tubes or in a 96-well plate.
All pass filter reads from each sample were mapped against the human genome (assembly GRCh38/GCA_000001405.15 “no alt” analysis set merged with hs38d1/GCA_000786075.2) using two pass mapping via STAR version 2.5.3a (alignment parameters alignIntronMin=20; alignIntronMax=1000000; outFilterMismatchNmax=999; outFilterMismatchNoverLmax=0.05; outFilterType=BySJout; outFilterMultimapNmax=20; alignSJoverhangMin=8; alignSJDBoverhangMin=1; alignMatesGapMax=1000000) (Dobin et al., Bioinformatics (2012) 29(1):15-21). Genomic alignments were converted to transcriptome alignments based on reference transcript annotations from the Human GENCODE Gene Set release 24 (Harrow et al., Genome Res. (2012) 22(9): 1760-1774). Using unique and multimapped transcriptomic alignments, gene-level abundance estimates were computed using RSEM version 1.3.0 (Li and Dewey, BMC Bioinformatics (2011) 12:323) in a strand-aware manner, and including confidence interval sampling calculations, to arrive at posterior mean estimates (PME) of abundances (counts and normalized FPKM—fragments per kilobase of exon per million mapped fragments) from the underlying Bayesian model. Standard QC were applied (read integrity, mapping statistics, library complexity, fragment bias) to remove unsatisfactory samples.

The subject of the next experiment is NOTCH2. The experiment can be described thus: RNA-seq of NOTCH2 expression in compound-treated primary human hepatocytes. The settings on record: primary human hepatocytes. In short, it runs like this: as §1

`S=C(NCc1ccc2c(c1)OCO2)N1CCN(c2ncnc3c2oc2ccccc23)CC1` [Amuvatinib]: in the experiment on JAG1, the “JAG1 Fold Change (Log2)” value is on record as 0.74 Log2 and the “Significant modulation of JAG1 (in words)” value is on record as “significantly modulate only JAG1”. Moreover, the “SLC37A4 Fold Change (Log2)” value in the experiment with SLC37A4 was found to be 0.97 Log2. Also, the “NOTCH2 Fold Change (Log2)” value with NOTCH2 was −0.79 Log2.

In the case of `O=C1CCC(N2C(=O)c3ccccc3C2=O)C(=O)N1` (centres unmarked) [Thalidomide], in the experiment on JAG1, the “JAG1 Fold Change (Log2)” value is recorded as 1.30 Log2 and the “Significant modulation of JAG1 (in words)” value is given as “significantly modulate only JAG1”. Moreover, the “SLC37A4 Fold Change (Log2)” value with SLC37A4 is reported as 0.64 Log2. Moreover, the “NOTCH2 Fold Change (Log2)” value in the experiment on NOTCH2 is recorded as −0.68 Log2.
